Columns and labels:
Type in all cases: biochemical
CDK7/CyclinH/MAT1 = CDK7/CyclinH/MAT1 (Homo sapiens (Human), UniProt P50613); experiment: CDK7/CyclinH/MAT1 kinase inhibitory activity (Caliper mobility shift)
CDK2/CyclinE1 = CDK2/CyclinE1 (Homo sapiens (Human), UniProt P24941); experiment: CDK2/CyclinE1 kinase inhibitory activity (Caliper mobility shift); conditions: read-out: CDK2/Cyclin El IC50
CDK9/CyclinT1 = CDK9/CyclinT1 (Homo sapiens (Human), UniProt P50750); experiment: CDK9/CyclinT1 kinase inhibitory activity (Caliper mobility shift); conditions: read-out: CDK9/Cyclin T1 IC50
Chain of CDK9/CyclinT1 (P50750 whole entry): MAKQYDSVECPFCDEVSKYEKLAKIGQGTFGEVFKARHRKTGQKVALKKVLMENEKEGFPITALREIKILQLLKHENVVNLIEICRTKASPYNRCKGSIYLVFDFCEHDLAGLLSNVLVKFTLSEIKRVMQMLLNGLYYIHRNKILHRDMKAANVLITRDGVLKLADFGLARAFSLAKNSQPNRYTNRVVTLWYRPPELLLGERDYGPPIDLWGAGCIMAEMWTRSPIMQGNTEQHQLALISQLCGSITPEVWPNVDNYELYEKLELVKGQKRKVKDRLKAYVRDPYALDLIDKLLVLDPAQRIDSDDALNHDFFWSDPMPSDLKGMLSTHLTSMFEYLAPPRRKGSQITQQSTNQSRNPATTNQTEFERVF
Chain of CDK9/CyclinT1 (O60563 whole entry partner): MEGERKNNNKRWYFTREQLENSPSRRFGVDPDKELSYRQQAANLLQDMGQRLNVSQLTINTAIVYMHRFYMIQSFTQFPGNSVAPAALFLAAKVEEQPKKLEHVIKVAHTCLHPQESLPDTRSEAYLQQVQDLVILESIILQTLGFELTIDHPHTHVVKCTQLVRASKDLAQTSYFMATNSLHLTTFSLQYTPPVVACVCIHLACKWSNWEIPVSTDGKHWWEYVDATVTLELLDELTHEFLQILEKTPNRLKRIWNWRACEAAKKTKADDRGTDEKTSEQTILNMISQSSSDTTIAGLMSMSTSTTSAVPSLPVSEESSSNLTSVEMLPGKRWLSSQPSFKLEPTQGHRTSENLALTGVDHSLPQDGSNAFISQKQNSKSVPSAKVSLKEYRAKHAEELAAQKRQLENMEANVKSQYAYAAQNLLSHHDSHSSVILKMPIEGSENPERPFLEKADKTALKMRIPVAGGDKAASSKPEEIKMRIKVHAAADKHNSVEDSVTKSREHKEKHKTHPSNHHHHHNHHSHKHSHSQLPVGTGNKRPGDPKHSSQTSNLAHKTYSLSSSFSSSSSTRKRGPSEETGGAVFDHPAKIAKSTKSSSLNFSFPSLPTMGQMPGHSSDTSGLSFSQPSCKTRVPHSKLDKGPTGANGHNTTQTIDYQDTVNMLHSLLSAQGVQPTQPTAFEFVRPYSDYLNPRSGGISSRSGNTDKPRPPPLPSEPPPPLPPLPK

CDK1/CyclinB = CDK1/CyclinB (Homo sapiens (Human), UniProt P06493); experiment: CDK1/CyclinB kinase inhibitory activity (Caliper mobility shift); conditions: read-out: CDK1/Cyclin B1 IC50
Chain of CDK1/CyclinB (P06493 whole entry): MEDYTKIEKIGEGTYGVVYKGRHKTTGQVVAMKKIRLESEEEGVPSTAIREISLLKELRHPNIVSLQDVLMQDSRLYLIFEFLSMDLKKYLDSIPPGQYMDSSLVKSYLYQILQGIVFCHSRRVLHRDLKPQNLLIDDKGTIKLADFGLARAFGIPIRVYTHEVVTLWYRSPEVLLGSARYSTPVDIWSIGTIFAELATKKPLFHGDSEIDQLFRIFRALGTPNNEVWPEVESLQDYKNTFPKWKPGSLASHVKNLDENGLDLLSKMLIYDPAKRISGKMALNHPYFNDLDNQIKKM
Chain of CDK1/CyclinB (P14635 whole entry partner): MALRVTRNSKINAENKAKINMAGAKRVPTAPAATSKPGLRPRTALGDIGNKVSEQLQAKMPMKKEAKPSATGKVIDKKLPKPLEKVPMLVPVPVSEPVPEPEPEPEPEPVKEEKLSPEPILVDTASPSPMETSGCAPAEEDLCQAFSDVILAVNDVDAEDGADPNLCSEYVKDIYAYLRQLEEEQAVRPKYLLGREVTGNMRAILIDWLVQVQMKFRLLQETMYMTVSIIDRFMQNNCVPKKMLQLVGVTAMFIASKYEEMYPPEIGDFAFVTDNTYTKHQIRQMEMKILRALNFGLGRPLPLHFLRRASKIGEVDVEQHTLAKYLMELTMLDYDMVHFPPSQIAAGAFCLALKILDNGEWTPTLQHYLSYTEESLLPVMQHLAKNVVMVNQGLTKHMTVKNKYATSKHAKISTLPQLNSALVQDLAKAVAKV

CDK6/CyclinD1 = CDK6/CyclinD1 (Homo sapiens (Human), UniProt Q00534); experiment: CDK6/CyclinD1 kinase inhibitory activity (Caliper mobility shift); conditions: read-out: CDK6/Cyclin D1 IC50
Chain of CDK6/CyclinD1 (Q00534 whole entry): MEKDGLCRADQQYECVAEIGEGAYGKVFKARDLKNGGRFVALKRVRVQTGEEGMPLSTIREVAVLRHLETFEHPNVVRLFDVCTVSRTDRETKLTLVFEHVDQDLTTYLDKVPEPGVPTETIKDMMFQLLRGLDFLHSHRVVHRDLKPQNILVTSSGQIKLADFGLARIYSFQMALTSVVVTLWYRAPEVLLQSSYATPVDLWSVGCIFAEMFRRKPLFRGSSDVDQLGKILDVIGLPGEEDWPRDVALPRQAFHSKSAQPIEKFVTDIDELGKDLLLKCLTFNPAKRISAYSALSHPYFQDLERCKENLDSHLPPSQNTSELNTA
Chain of CDK6/CyclinD1 (P24385 whole entry partner): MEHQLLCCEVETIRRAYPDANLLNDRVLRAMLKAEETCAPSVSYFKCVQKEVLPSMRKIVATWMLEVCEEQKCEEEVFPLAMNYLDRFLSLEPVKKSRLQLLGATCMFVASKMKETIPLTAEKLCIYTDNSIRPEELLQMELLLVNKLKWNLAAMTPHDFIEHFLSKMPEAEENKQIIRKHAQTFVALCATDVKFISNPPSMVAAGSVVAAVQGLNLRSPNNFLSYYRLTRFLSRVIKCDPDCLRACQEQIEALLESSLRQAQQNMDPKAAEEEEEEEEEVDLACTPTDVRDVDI

CDK4/Cyclin D1 = CDK4/Cyclin D1 (Homo sapiens (Human), UniProt P11802); experiment: CDK4/CyclinD1 kinase inhibitory activity (Caliper mobility shift)
Chain of CDK4/Cyclin D1 (P11802 whole entry): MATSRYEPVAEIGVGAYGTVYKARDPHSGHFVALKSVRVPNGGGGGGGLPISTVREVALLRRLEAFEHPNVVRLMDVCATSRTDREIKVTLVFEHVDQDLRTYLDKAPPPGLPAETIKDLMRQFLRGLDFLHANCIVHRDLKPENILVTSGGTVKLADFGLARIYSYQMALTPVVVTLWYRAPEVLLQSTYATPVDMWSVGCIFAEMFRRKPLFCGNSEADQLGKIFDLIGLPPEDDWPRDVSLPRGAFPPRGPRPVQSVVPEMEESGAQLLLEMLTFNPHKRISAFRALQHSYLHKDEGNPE
Chain of CDK4/Cyclin D1 (P24385 whole entry partner): as the sequence (P24385 whole entry partner) above

Chain of CDK7/CyclinH/MAT1 (P50613 whole entry): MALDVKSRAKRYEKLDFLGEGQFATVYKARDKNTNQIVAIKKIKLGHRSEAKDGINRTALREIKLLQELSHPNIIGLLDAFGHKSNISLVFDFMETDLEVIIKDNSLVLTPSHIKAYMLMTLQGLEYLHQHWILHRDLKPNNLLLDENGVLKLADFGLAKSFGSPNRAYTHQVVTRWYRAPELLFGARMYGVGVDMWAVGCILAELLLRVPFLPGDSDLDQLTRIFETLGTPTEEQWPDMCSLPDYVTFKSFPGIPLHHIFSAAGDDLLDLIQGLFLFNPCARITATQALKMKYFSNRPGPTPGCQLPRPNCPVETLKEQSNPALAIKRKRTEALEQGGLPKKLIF
Chain of CDK7/CyclinH/MAT1 (P51946 whole entry partner): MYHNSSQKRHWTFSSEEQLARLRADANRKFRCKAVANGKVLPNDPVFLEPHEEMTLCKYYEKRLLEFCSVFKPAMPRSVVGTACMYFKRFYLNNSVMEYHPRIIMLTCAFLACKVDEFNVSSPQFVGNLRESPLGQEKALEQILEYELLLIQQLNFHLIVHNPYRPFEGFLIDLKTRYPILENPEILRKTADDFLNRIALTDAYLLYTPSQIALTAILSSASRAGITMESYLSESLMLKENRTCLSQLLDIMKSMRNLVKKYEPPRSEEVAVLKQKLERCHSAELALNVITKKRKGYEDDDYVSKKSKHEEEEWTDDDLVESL
Chain of CDK7/CyclinH/MAT1 (P51948 whole entry partner): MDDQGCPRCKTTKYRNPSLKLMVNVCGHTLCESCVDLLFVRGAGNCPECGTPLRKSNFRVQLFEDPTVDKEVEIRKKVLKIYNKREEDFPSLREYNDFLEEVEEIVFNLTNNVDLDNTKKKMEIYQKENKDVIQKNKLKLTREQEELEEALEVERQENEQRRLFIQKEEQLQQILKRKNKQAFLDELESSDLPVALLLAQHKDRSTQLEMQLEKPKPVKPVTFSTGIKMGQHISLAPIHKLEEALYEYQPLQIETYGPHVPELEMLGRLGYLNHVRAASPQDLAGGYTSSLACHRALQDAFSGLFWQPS

Compound | IC50 (CDK7/CyclinH/MAT1) [µM] | IC50 (CDK2/CyclinE1) [µM] | IC50 (CDK9/CyclinT1) [µM] | IC50 (CDK1/CyclinB) [µM] | IC50 (CDK6/CyclinD1) [µM] | IC50 (CDK4/Cyclin D1) [µM]
N#Cc1cnc(Nc2ccc(S(N)(=O)=O)cc2)nc1-c1ccccc1 [Example 93] | ≥ 1 | 0.01 to 0.1 | 0.1 to 1 | 0.1 to 1 | ≥ 1 | –
C[C@H]1CCCN(c2nc(Nc3ccc(S(N)(=O)=O)cc3)ncc2C#N)C1 [Example 71] | ≥ 1 | < 0.01 | 0.01 to 0.1 | 0.01 to 0.1 | 0.1 to 1 | –
CNS(=O)(=O)c1ccc(Nc2ncc(C(F)(F)F)c(OC3CCOCCC3O)n2)cc1 (single isomer, unassigned) [Example 102d, 4-((4-((5-hydroxyoxepan-4-yl)oxy)-5-(trifluoromethyl)pyrimidin-2-yl)amino)-N-(methyl-d3)benzenesulfonamide] | – | < 0.01 | – | – | – | ≥ 1
NS(=O)(=O)c1ccc(Nc2ncc(F)c(N3CCCCC3)n2)cc1 [Example 86] | ≥ 1 | 0.01 to 0.1 | 0.01 to 0.1 | 0.01 to 0.1 | ≥ 1 | –
CNS(=O)(=O)c1ccc(Nc2ncc(C(F)(F)F)c(OC3CCOCCC3O)n2)cc1 (single isomer, unassigned) [Example 102b, 4-((4-((5-hydroxyoxepan-4-yl)oxy)-5-(trifluoromethyl)pyrimidin-2-yl)amino)-N-(methyl-d3)benzenesulfonamide] | – | < 0.01 | – | – | – | ≥ 1
CC1(C)CCCN(c2nc(Nc3ccc(S(N)(=O)=O)cc3)ncc2C#N)C1 [Example 83] | ≥ 1 | < 0.01 | 0.01 to 0.1 | 0.01 to 0.1 | 0.1 to 1 | –
C[C@@H]1CCCCN1c1nc(Nc2ccc(S(N)(=O)=O)cc2)ncc1C#N [Example 73] | 0.1 to 1 | < 0.01 | 0.1 to 1 | 0.01 to 0.1 | 0.1 to 1 | –
C[C@H]1CCCCN1c1nc(Nc2ccc(S(N)(=O)=O)cc2)ncc1C#N [Example 74] | ≥ 1 | < 0.01 | 0.1 to 1 | 0.01 to 0.1 | 0.1 to 1 | –
N#Cc1cnc(Nc2ccc(S(N)(=O)=O)cc2)nc1OCC1CCCC1 [Example 1, 4-((5-cyano-4-(cyclopentylmethoxy)pyrimidin-2-yl)amino)benzenesulfonamide] | ≥ 1 | 0.01 to 0.1 | 0.01 to 0.1 | 0.01 to 0.1 | ≥ 1 | –
N#Cc1cnc(Nc2ccc(S(N)(=O)=O)cc2)nc1OCC1(CO)CCCC1 [Example 15] | 0.1 to 1 | < 0.01 | 0.1 to 1 | 0.01 to 0.1 | 0.1 to 1 | –
N#Cc1cnc(Nc2ccc(S(=O)(=O)NC3COC3)cc2)nc1N1CCCCC1 [Example 66, 4-((5-cyano-4-(piperidin-1-yl)pyrimidin-2-yl)amino)-N-(oxetan-3-yl)benzenesulfonamide] | ≥ 1 | < 0.01 | 0.1 to 1 | 0.01 to 0.1 | 0.1 to 1 | –
C[C@@H]1CCCN(c2nc(Nc3ccc(S(N)(=O)=O)cc3)ncc2C#N)C1 [Example 72] | ≥ 1 | 0.01 to 0.1 | 0.1 to 1 | 0.1 to 1 | 0.1 to 1 | –
N#Cc1cnc(Nc2ccc(S(N)(=O)=O)cc2)nc1N1CCCC(c2ccccc2)C1 (single isomer, unassigned) [Example 85] | 0.1 to 1 | < 0.01 | 0.1 to 1 | 0.01 to 0.1 | 0.1 to 1 | –
N#Cc1cnc(Nc2ccc(S(N)(=O)=O)cc2)nc1-c1ccc(O)cc1 [Example 92, 4-((5-cyano-4-(4-hydroxyphenyl)pyrimidin-2-yl)amino)benzenesulfonamide] | ≥ 1 | < 0.01 | 0.1 to 1 | 0.01 to 0.1 | 0.1 to 1 | –
CC1(COc2nc(Nc3ccc(S(N)(=O)=O)cc3)ncc2C#N)CCCCC1 [Example 14] | ≥ 1 | 0.01 to 0.1 | 0.1 to 1 | 0.1 to 1 | ≥ 1 | –

Reference: US20240166635A1, “AMINOHETEROARYL KINASE INHIBITORS” (Anrui Biomedical Technology (Guangzhou) Co.,Ltd., priority 2020, published 2024)
